Test results as given in paper PMC12865225 (Clinical and Translational Science, 2026).
Marks after values point to notes of the source that are not given here.

Experiments:
[1] = biological target: T1, BCRP (Homo sapiens, UniProt Q9UNQ0); test: BCRP inhibition, rosuvastatin transport in HEK293 membrane vesicles; assay type: biochemical; settings: R = I gut/IC50, FDA cut-off ≥ 10
T1 construct: made in house; host or cells: membrane vesicles from HEK293 cells expressing the transporter
T1 sequence (Q9UNQ0 1-655): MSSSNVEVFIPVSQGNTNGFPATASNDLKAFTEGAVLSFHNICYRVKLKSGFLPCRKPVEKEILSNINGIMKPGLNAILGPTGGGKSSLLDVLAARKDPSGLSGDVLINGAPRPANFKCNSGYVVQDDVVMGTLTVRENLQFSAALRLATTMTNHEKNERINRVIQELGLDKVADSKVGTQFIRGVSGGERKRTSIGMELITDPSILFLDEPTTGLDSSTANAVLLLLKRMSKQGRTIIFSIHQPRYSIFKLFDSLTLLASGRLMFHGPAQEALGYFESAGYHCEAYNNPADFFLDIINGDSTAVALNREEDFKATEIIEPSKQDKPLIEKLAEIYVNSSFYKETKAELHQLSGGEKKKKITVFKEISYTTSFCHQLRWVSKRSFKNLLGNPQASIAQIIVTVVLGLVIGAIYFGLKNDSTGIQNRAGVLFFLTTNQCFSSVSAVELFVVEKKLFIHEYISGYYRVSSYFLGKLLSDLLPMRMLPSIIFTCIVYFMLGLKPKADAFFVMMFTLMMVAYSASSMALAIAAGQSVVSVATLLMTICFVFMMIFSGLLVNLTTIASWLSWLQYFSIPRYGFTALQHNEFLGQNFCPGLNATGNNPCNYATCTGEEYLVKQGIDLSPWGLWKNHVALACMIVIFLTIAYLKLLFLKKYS
Procedure: Membrane vesicles, 5 μL (7.5 μg of total protein), prepared as previously reported, were aliquoted to wells of a conical‐shaped 96‐well plate. The plate was incubated for 10 min at +37°C before the initiation of transport by adding 25 μL of TS‐buffer (10 mM Tris, 250 mM sucrose, pH adjusted to 7.4 with HEPES) containing magnesium chloride (10 mM final in the reaction), adenosine triphosphate (ATP) or adenosine monophosphate (AMP), 4 mM final in the reaction, and the transporter substrate and inhibitor. Each experiment included triplicate samples for both ATP and AMP samples. The concentrations of rosuvastatin and N‐methyl‐quinidine were 1 μM in the BCRP and P‐gp vesicle inhibition assays, respectively. The transport reaction times were 1 and 2 min for BCRP and P‐gp, respectively. […] The transport reactions were quenched by adding 200 μL of cold TS‐buffer to each well and transferring the samples to a 96‐multiwell 1.0 μm glass fiber filter plate (Merck Millipore, Darmstadt, Germany) kept under vacuum. […]
For the inhibition data analysis, the average of measured concentrations in the control cells was subtracted from the average of measured concentrations in transporter‐expressing cells for each inhibitor concentration and then normalized to the vehicle sample that represents 100% transport activity. […]

[2] = biological target: T2, P-gp (Homo sapiens, UniProt P08183); test: P-gp inhibition, N-methyl-quinidine transport in HEK293 membrane vesicles; assay type: biochemical; settings: for Calculated R-value P-gp: R = I gut/IC50, FDA cut-off ≥ 10
T2 construct: made in house; host or cells: membrane vesicles from HEK293 cells expressing the transporter
Procedure: Membrane vesicles, 5 μL (7.5 μg of total protein), prepared as previously reported, were aliquoted to wells of a conical‐shaped 96‐well plate. The plate was incubated for 10 min at +37°C before the initiation of transport by adding 25 μL of TS‐buffer (10 mM Tris, 250 mM sucrose, pH adjusted to 7.4 with HEPES) containing magnesium chloride (10 mM final in the reaction), adenosine triphosphate (ATP) or adenosine monophosphate (AMP), 4 mM final in the reaction, and the transporter substrate and inhibitor. Each experiment included triplicate samples for both ATP and AMP samples. The concentrations of rosuvastatin and N‐methyl‐quinidine were 1 μM in the BCRP and P‐gp vesicle inhibition assays, respectively. The transport reaction times were 1 and 2 min for BCRP and P‐gp, respectively. […] The transport reactions were quenched by adding 200 μL of cold TS‐buffer to each well and transferring the samples to a 96‐multiwell 1.0 μm glass fiber filter plate (Merck Millipore, Darmstadt, Germany) kept under vacuum. Wells were further washed four times with cold TS‐buffer, after which the plate was dried under vacuum. The compounds were eluted from the plate by applying 100 μL of 75% methanol containing 0.1% formic acid to each well and incubating at 250 RPM for 30 min before centrifuging the samples to an analysis plate at 2800 g for 2 min. For the rosuvastatin samples, the elution solvent contained rosuvastin‐d6 as the internal standard.
For the inhibition data analysis, the average of measured concentrations in the control cells was subtracted from the average of measured concentrations in transporter‐expressing cells for each inhibitor concentration and then normalized to the vehicle sample that represents 100% transport activity. Equation (1) was fit to the inhibition data. In Equation (1), Inhibition represents the percent inhibition of transporter‐mediated uptake at an inhibitor concentration of I and IC50 is the half‐maximal inhibitory concentration. (1) Inhibition=100%−100%/1+10^logIC50−logI

[3] = system: T3, OAT1; test: Uptake transport assay in OAT1-expressing HEK293 cells; assay type: cell-based, human; settings: 2 and 50 μM, 10 min
T3 construct: expressed in transfected cells; host or cells: HEK293 (recombinant baculovirus-mediated transduction)
Procedure: The human transporters OATP1B1, OATP1B3, OATP2B1, and OAT1‐OAT4 and a negative control protein (enhanced yellow fluorescent protein, eYFP) were transiently expressed in human embryonic kidney 293 (HEK293) cells by recombinant baculovirus‐mediated transduction. Baculoviruses carrying human genes for the transporters were prepared as reported previously. HEK293 cells were cultured in DMEM containing 10% fetal bovine serum at 37°C and 5% CO2 and passaged two to three times per week. For the transport studies, 0.05 × 10^6 cells for 48‐well plates (OATPs) or 0.06 × 10^6 cells for 24‐well plates (OATs) were seeded onto cell‐culture treated well plates coated with poly‐D‐lysine. After 1 day, cells were transduced to produce recombinant proteins by changing media to DMEM containing 30 μL (48‐well plates) or 60 μL (24‐well plates) of recombinant baculovirus and 3 mM (OATs) or 5 mM (OATPs) sodium butyrate in a total media volume of 500 μL. The cells were cultured for a further 2 days before the transport assays.
For the transport studies, media were removed and cells were washed once with warm transport uptake buffer (TP‐buffer—pH 7.4 HBSS with 25 mM HEPES and 4 mM sodium bicarbonate). Each experiment included triplicate (OATP) or duplicate (OAT) samples for every test condition. […]

[4] = system: T4, MRP4; test: Efflux transport assay in MRP4 HEK293 membrane vesicles; assay type: biochemical, human; settings: 5 and 50 µM, 10 min
T4 construct: expressed in transfected cells; host or cells: HEK293 cells

[5] = cited from earlier work; for Cmax: 1000 mg dose, read-out: total C max; for unbound fraction in plasma: static model input

T2 sequence (P08183 whole entry): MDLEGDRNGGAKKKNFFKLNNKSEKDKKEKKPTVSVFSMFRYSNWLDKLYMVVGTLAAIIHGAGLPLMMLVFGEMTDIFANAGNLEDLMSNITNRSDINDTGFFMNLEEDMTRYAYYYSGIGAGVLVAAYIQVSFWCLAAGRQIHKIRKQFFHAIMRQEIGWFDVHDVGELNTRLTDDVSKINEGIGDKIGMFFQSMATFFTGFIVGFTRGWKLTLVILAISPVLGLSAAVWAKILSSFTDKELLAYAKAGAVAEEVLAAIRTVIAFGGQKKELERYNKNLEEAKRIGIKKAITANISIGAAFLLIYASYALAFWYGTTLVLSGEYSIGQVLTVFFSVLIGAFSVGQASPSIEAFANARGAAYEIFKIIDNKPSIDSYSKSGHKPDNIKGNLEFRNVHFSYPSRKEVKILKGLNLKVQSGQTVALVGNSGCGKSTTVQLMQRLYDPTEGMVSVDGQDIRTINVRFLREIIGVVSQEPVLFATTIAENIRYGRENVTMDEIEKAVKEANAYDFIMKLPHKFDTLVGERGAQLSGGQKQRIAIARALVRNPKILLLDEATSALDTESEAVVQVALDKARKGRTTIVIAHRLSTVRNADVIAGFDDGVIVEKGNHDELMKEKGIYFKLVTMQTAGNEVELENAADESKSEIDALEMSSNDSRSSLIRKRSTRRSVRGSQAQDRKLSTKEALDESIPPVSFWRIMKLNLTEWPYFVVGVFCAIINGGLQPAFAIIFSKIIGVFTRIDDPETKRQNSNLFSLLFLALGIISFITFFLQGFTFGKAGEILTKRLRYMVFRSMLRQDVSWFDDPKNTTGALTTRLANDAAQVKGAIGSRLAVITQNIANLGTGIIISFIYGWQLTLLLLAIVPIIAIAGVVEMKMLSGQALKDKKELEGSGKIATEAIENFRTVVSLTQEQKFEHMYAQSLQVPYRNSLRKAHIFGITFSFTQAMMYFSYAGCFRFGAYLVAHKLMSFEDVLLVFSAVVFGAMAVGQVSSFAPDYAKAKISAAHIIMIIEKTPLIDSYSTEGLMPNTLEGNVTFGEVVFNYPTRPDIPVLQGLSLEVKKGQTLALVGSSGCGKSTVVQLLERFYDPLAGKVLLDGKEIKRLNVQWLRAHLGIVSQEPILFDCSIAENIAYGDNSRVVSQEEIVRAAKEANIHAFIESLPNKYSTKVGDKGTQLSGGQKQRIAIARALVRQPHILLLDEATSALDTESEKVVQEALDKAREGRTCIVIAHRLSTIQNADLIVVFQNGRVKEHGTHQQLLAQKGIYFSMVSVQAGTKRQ

| Calculated R-value BCRP [1] | Calculated R-value P-gp [2] | inhibition of P-gp transport at the highest concentration ([2]; highest concentration) | transport by OAT1 [3] | transport by MRP4 [4] | IC50 ([2]; 1 μM N-methyl-quinidine, 2 min, membrane vesicles) | reduction of P-gp activity ([2]; highest tested concentration of 2100 μM) | SMILES | Cmax [5] | unbound fraction in plasma [5] |
| --- | --- | --- | --- | --- | --- | --- | --- | --- | --- |
| 51 ^b | 33 ^b | almost completely inhibited | transported | did not transport |  |  | Cc1onc(-c2c(Cl)cccc2Cl)c1C(=O)N[C@@H]1C(=O)N2[C@@H]1SC(C)(C)[C@@H]2C(=O)O [Dicloxacillin] | 67 µM | 0.02 |
| 23 ^b | 11 ^b |  | transported | did not transport | ≥ 833 µM | 65% | Cc1onc(-c2c(F)cccc2Cl)c1C(=O)N[C@@H]1C(=O)N2[C@@H]1SC(C)(C)[C@@H]2C(=O)O [Flucloxacillin] | 46 µM | 0.06 |
